The nature of data set [1]: Solid stability test of amorphous form (HPLC content and total impurity). It counts as physicochemical. Here is the method:
1.5 High Performance Liquid Chromatograph (HPLC) • Instrument model: Agilent 1200 high performance liquid chromatograph • The analysis method is as follows:
Stability of amorphous form sample under conditions of high temperature, high humidity (40° C./RH 75.0%, closed) and acceleration.
About 1.4 g of sample was put into a double-layer LDPE bag, each layer of LDPE bag was fastened and sealed respectively, then the LDPE bag and a medicinal desiccant were put into an aluminum-foil bag and sealed by heating, under conditions of high temperature and high humidity, a sample was taken on the 30th day for detection, and a detection result was compared with an initial detection result on the 0th day.

Data set [2] is described as follows: Equilibrium solubility of amorphous form sample in different pH media. Format: physicochemical. As to conditions: for solubility at 24 h: thermodynamic from solid. As for the experimental part: An equilibrium solubility of an amorphous form sample in pH 1.0/2.0 (hydrochloric acid solution), pH 3.8/4.5/5.5 (acetate buffer solution), pH 6.0/6.8/7.4 (phosphate buffer solution) and water was detected (prepared according to the Technical Guiding Principles for Dissolution Rate Test of Ordinary Oral Solid Preparations of Chinese Pharmacopoeia).
5 mL of different media (pH 1.0, pH 2.0, pH 3.8, pH 4.5, pH 5.5, pH 6.0, pH 6.8 and pH 7.4 buffer solutions and pure water) were respectively added into nine 8 mL glass bottles, and an appropriate amount of amorphous form sample was added respectively to make the mixture a suspension. Magnetic stirring bars were added into the sample above, which are placed on a magnetic stirrer to stir (at a temperature of 37° C.).
The sample was centrifuged after 24 h, and a supernatant was taken from an upper sample to determine a concentration thereof by HPLC and a pH value thereof (results shown in Table 4).

Data set [3] is described as follows: Hygroscopicity test of amorphous form sample. It counts as physicochemical. As to conditions: 25° C., 24 h. As for the experimental part:
A hygroscopicity of an amorphous form sample was detected. (The hygroscopicity of the compound was determined according to the method in the General Rules of the Chinese Pharmacopoeia (2015 Version) Volume IV).
Three dry glass weighing bottles with stoppers were weighed, the results of which were recorded as m1 1, m1 2 and m1 3. An appropriate amount of crude drug sample was spread in the weighed weighing bottles (the sample has a thickness of about 1 mm), then accurately weighed and recorded as m2 1, m2 2 and m2 3. The weighing bottles were open and placed together with bottle caps in a dryer with saturated ammonium chloride solution at a lower part, the dryer was covered, then the dryer was placed in a thermostat at 25° C. for 24 h. After being placed for 24 h, the weighing bottles were covered, then taken out for accurate weighing, the results of which were recorded as m3 1, m3 2 and m3 3. Weight increase by hygroscopicity was calculated, and the calculation formula was as follows: weight increase percentage=100%×(m3−m2)/(m2−m1).

A short description of data set [4]: Solid stability test of crystal form (XRPD). It counts as physicochemical. As for the experimental part: According to the Guiding Principles for Stability Experiment of Crude Drugs and Preparations (General Rules 9001 of Chinese Pharmacopoeia (2015 Version) Volume IV), a stability of a compound placed under conditions of high temperature (60° C., open), high humidity (RT/92.5% RH, open) and illumination (50001×, closed) for 5 days and 10 days were investigated.
An appropriate amount of a crystal form sample of a compound represented by formula (I) was placed at a bottom of a glass sample bottle and spread into a thin layer. The sample placed under the conditions of high temperature and high humidity was sealed with aluminum-foil paper, and small holes were punched in the aluminum-foil paper to ensure that the sample could be fully contacted with ambient air. The sample placed under the condition of illumination (50001×) was sealed with a bottle cap and further sealed with a sealing film, the sample was sealed and placed at a room temperature, and XRPD detection was performed on the 5th day and the 10th day.

Data set [5] is described as follows: Pharmacokinetic study, intramuscular injection in mouse. Format: in vivo, SD mouse. As to conditions: sesame oil suspension. As for the experimental part: Through the experiment of drug metabolism in a mouse, the metabolism of the compound in the mouse is evaluated by taking Cmax, t1/2, AUC, MRT and B/P ratio in vivo as indexes.
A test compound was mixed with an appropriate amount of sesame oil, and the mixture was vortexed and ultrasonically processed to obtain an even suspension of 25 μmol/mL. A SD mouse aged 6 weeks to 9 weeks (Shanghai SLAC Laboratory Animal Co., Ltd) was selected and intramuscularly injected with a suspension of the test compound at a dose of 20 μmol/kg or 40 μmol/kg. Whole blood of a certain period of time was collected, and a precipitant (acetonitrile, methanol and internal standard for analysis) was added and centrifuged. A supernatant solution was analyzed for a drug concentration by a LC-MS/MS method (if the test drug was the prodrug, concentrations of the prodrug and the hydrolyzed parent drug were analyzed simultaneously), and pharmacokinetic parameters were calculated by Phoenix WinNonlin software (Pharsight Company of the United States).

[6] abbreviates: High temperature and high humidity (40° C./RH 75.0%, close), 30 days.

Values after ≈ are worked out from the molar mass of the structure shown. Values joined by “and” are separate entries in the source; they are usually repeats but may differ in a detail not shown here. Identical values can stand only once. “Also recorded” adds a separate entry of the source.

As for `C[C@@]12CCCCC[C@@H](Cc3c(F)cc(OC(=O)CCCCCCCCC(=O)Oc4cc(F)c5c(c4)[C@@]4(C)CCCCC[C@@H](C5)[C@@H]4N)cc31)[C@@H]2N` [listing 1 of 2 here], the Content in data set [1] (0 day) is given as 99.3%; in data set [1] (setting [6]) it was 97.8%. The Total impurity in data set [1] (0 day) came out at 1.56%; in data set [1] (setting [6]) it was 1.96%. Also, the “Solid stability of amorphous form (conclusion in words)” value in data set [1] (high temperature, high humidity and sealing, 30 days) was “relatively stable”. The solubility at 24 h in data set [2] (0.01 N HCl, simulated gastric fluid, 0.01 NHCl, final pH 2.01, 37° C., 24 h) is 1630 µg/mL (≈ 2.35 mM); in data set [2] (0.1 N HCl, simulated gastric fluid, 0.1 NHCl, final pH 1.02, 37° C., 24 h), 398 µg/mL (≈ 0.574 mM); in data set [2] (aqueous buffer, pH 3.8 buffer solution (acetate), final pH 3.68, 37° C., 24 h) it was 15100 µg/mL (≈ 21.8 mM); in data set [2] (aqueous buffer, pH 4.5 buffer solution (acetate), final pH 4.48, 37° C., 24 h) it was 19600 µg/mL (≈ 28.3 mM); in data set [2] (aqueous buffer, pH 5.5 buffer solution (acetate), final pH 5.25, 37° C., 24 h), 18700 µg/mL (≈ 27 mM); in data set [2] (aqueous buffer, pH 6.0 buffer solution (phosphate), final pH 5.89, 37° C., 24 h) it was 13 µg/mL (≈ 0.0188 mM). Besides, the solubility at 24 h in data set [2] (aqueous buffer, pH 6.8 buffer solution (phosphate), final pH 6.75, 37° C., 24 h) was found to be 3 µg/mL (≈ 0.00433 mM); in data set [2] (pure water, Water, final pH 4.28, 37° C., 24 h), 13500 µg/mL (≈ 19.5 mM). In addition, the “Solubility (in words)” value in data set [2] (hydrochloric acid solution, acetate buffer solution and water) was “easily soluble”; in data set [2] (phosphate buffer solution) it was “slightly soluble or insoluble”. The Solubility entry in data set [2] (pH 7.4 buffer solution (phosphate), final pH 7.20, 37° C., 24 h, LOQ = 0.0003 mg/mL) is given as “<LOQ”. Besides, the “Hygroscopicity (in words)” value in data set [3] was “had hygroscopicity”. Besides, the “Weight increase percentage, average value” in data set [3] (average of three samples, over saturated ammonium chloride solution) was 5.24%. Further, the Weight increase percentage in data set [3] (single samples 1-3, over saturated ammonium chloride solution) is 5.790% and 5.215% and 4.714%.

With `C[C@@]12CCCCC[C@@H](Cc3c(F)cc(OC(=O)CCCCCCCCC(=O)Oc4cc(F)c5c(c4)[C@@]4(C)CCCCC[C@@H](C5)[C@@H]4N)cc31)[C@@H]2N` [listing 2 of 2 here], the “Crystal form (MOD)” value was “Crystal form of compound represented” in data set [4] (0 day, initial); “Crystal form of compound represented” in data set [4] (High humidity (RT/RH 92.5%, open), 5 days); “Crystal form of compound represented” in data set [4] (High humidity (RT/RH 92.5%, open), 10 days); “Crystal form of compound represented” in data set [4] (High temperature (60° C., open), 5 days); “Crystal form of compound represented” in data set [4] (High temperature (60° C., open), 10 days); “Crystal form of compound represented” in data set [4] (Illumination (5000lx, closed), 5 days). The “Crystal form (MOD)” value in data set [4] (Illumination (5000lx, closed), 10 days) is listed as “Crystal form of compound represented”. In addition, the “Solid stability of crystal form (conclusion in words)” value in data set [4] (high temperature, high humidity and illumination, 5 and 10 days vs 0 day) was “did not change; also recorded: stable under the conditions of high temperature, high humidity and illumination without any change”.

In the case of `C[C@@]12CCCCC[C@@H](Cc3c(F)cc(OC(=O)CCCCCCCCC(=O)Oc4cc(F)c5c(c4)[C@@]4(C)CCCCC[C@@H](C5)[C@@H]4N)cc31)[C@@H]2N` [Compound B], the “Release and hydrolysis in vivo (in words)” value in data set [5] was “slowly released in vivo after intramuscular injection and quickly hydrolyzed into the parent drug compound A”.

The values are drawn from patent publication US11339119B2, “Crystal form and amorphous form of dezocine analogue hydrochloride” (Shandong Danhong Pharmaceutical Co., Ltd., priority 2017, dated 2022).
